Where “and” joins values, the source holds several entries; their conditions need not be identical. Identical values can stand only once. Blank lines part the entries; values can stand above or below the molecule they belong to.
What was measured:
RAG-1^−/− mice [1] = test: Intestinal RI model in reconstituted RAG-1^−/− mice (histopathology, immunohistochemistry); assay type: in vivo, mouse; conditions: for mean pathology score: 40 min ischemia, 3 h reperfusion
Description: (§1) Surgical protocol for RI was performed as previously described (Zhang et al. (2004) PNAS USA 101:3886-91). […] After 40 minutes of ischemia, the microclip was removed, and reperfusion of the mesenteric vasculature was confirmed by the return of pulsation to the vascular arcade and a change to pink color. The incision was closed, and all animals kept warm for 3 hours. Reconstituted RAG-1^−/− animals received either IgM mixed with peptide or saline in 0.2 ml volume intravenously 30 min before the initial laparotomy. WT animals were treated with saline or peptide i.v. 5 minutes prior to reperfusion. At the end of reperfusion, the ischemic segment of the jejunum was harvested and the central 4 cm was cut for pathological analysis.
(§2) Cryostat sections of intestinal tissues were stained by hematoxylin and eosin (H&E) and examined by light microscopy for mucosal damage. Pathology score was assessed based on procedure by Chiu (Chiu et al, Arch Surg 101: 484-488, 1970; Chiu, et al, Arch Surg 101: 478-483, 1970) that included direct inspection of all microvilli over a 4 cm stretch of jejuneum as described. Zhang et al. (2004) PNAS USA 101:3886-91. For immuno-fluorescence, cryosections fixed with 4% (w/v) paraformaldehyde were incubated for varying periods with either biotin-labeled anti-mouse IgM (Becton Dickinson, Calif.) followed by 1 hour with streptavidin-Alexa-568 (1:500 dilution, Molecular Probes, Oreg.). C4 deposition was detected by staining with FITC-labeled rabbit anti-huC4c (DAKO, Colo.), followed by anti-rabbit-Alexa 488 (Molecular Probes, Oreg.). The specificity of anti-C4c staining was confirmed by staining serial sections with biotin-labeled anti-mouse C4 for 1 hour followed by streptavidin-FITC (Becton Dickinson, Calif.). C3 deposition was detected by treating with FITC-labeled anti-C3 (DAKO, Colo.). Sections were mounted in Anti-fade Mounting Medium with DAPI (Molecular Probes, Oreg.).

IgM^CM-22 [2] = test: SPR analysis of peptide binding to IgM^CM-22-coupled surface; set-up: species or system mouse; conditions: calculated from steady-state response levels, 1:1 Langmuir fit; mean±SD, n=2; 25° C.
Description: FIG. 9A is a graph showing the surface plasmon resonance for the self-peptide N2. Binding isotherms for samples of the self-peptide N2 with concentration from 10.5 μM to 120 μM injected over the IgM^CM-22-coupled surface.
FIG. 9B is a graph showing the surface plasmon resonance for a control peptide. Binding isotherm for a same-length, random-sequence control peptide (AGCMPYVRIPTA; SEQ ID NO: 62), injected at a concentration of 117 μM over the IgM^CM-22-coupled surface.
(§3) An IgM (IgM^CM-22 or IgM^CM-31) antibody was immobilized by amine coupling in a BiaCore SPR CM5™ chip flowcell at a density of 33,400 response units (RU) ˜33 ng/mm^2 as described. Vorup-Jensen et al, PNAS USA 100: 1873-1878, 2003. Briefly, a reference flow cell was prepared by coupling of ethanolamine-HCl. Peptides, diluted in PBS running buffer, were flowed separately over the IgM-coupled surface and the reference at a rate of 10 μl/min at 25° C. and with the data collection rate at 10 Hz. […] Binding isotherms were derived by subtracting the response in the reference cell from the response of the IgM-coupled surface. Following each run, the surface was regenerated by injecting 40 μl 0.05% (v/v) polyoxyethylenesorbitan monolaureate/PBS.

WT mice = test: Intestinal RI model in wild type mice (histopathology, immunohistochemistry); assay type: in vivo, mouse; conditions: peptide i.v. five minutes prior to reperfusion
Description: as §1, §2

IgM^CM-31 = test: SPR analysis of peptide binding to control IgM^CM-31-coupled surface; set-up: species or system mouse; conditions: peptide injected at 120 μM
Description: FIG. 9D is a graph showing the binding isotherm for the injection of the self-peptide N2 at 120 μM over a surface coupled with the control IgM^CM-31.
as §3

IgM^CM-22 [3] = test: Titration of peptide with IgM^CM-22; set-up: species or system mouse; conditions: previous titration of peptide with IgM^CM-22
IgM^CM-22 [4] = test: ELISA: synthetic peptide P8 inhibits IgM^CM-22 binding of phage clone P8; set-up: species or system mouse; conditions: peptide added to IgM^CM-22-coated plate prior to 5×10^11 PFU phage; estimated; read-out: concentration of P8 peptide yielding 50% inhibition of phage P8 binding to IgM^CM-22
Description: FIG. 6B is a bar graph showing that the synthetic peptide P8 inhibits IgM^CM-22 binding of phage clone P8. ELISA was performed with varying concentrations of the synthetic peptide P8 added to the IgM^CM-22-coated plate prior to the addition of 5×10^11 PFU phage. The results are representative of at least three independent experiments.
(§4) ELISA was performed as described earlier (Zhang et al. (2004) PNAS USA 101:3886-91). Briefly, IgM binding to phage or phage-specific peptides was determined by coating a 96-well plate with saturating amounts of antigen. Subsequent to blocking, IgM was added (1 or 10 μg/ml) for 2 hr at 37° C. Plates were washed and then developed with alkaline phosphatase-labeled goat anti-mouse IgM (Sigma, MO). Binding of IgM to NMHC-II was determined by culturing 96-well plates previously coated with specific rabbit antibody (NMHC-II A & B; Covance Research Products; NMHC-II C a gift from Dr. Adelstein, NHLBI, NIH, Bethesda, Md.) or pan-myosin Hc (Sigma, Mo.) with intestinal lysates prepared from IgM^CM-22 reconstituted RAG-1^−/− mice either sham treated or treated for ischemia as described (Zhang et al. (2004) PNAS USA 101:3886-91). Lysates were prepared as described for immune precipitation (see below). Alkaline-phosphatase labeled goat anti-mouse IgM (Sigma, Mo.) was then used to detect bound IgM. […]

IgM^CM-22 [5] = test: ELISA screening of M-13 phage clones on IgM^CM-22-coated plate; assay type: binding, mouse; conditions: five phage clones compared, ELISA (FIG. 6A)
Description: FIG. 6A is a graph showing the ELISA screening of M-13 phage-display library for IgM^CM-22-specific peptides. Symbols: […]-P1 clone; X-P2 clone, ∘-P7 clone; ⋄-P8 clone. The plate was coated with a solution of IgM^CM-22 before addition of varying concentrations of phage-clones. The results are representative of at least three independent experiments.
A 12-mer M-13 phage display library (New England Biolab, Mass.) was screened by 4 rounds with MBL-beads coated with IgM^CM-22 and 2 rounds with IgM^CM-75 according to the manufacturer's recommendation. Phage clones were selected from the enriched pool and the nucleotide sequence of the relevant phage gene determined for at least ten clones. […]
ELISA was performed as described earlier (Zhang et al. (2004) PNAS USA 101:3886-91). Briefly, IgM binding to phage or phage-specific peptides was determined by coating a 96-well plate with saturating amounts of antigen. […] Binding of IgM to NMHC-II was determined by culturing 96-well plates previously coated with specific rabbit antibody (NMHC-II A & B; Covance Research Products; NMHC-II C a gift from Dr. Adelstein, NHLBI, NIH, Bethesda, Md.) or pan-myosin Hc (Sigma, Mo.) with intestinal lysates prepared from IgM^CM-22 reconstituted RAG-1^−/− mice either sham treated or treated for ischemia as described (Zhang et al. (2004) PNAS USA 101:3886-91). […]

P8 peptide = test: ELISA: IgM binding to P8 peptide-coated plates; conditions: plate coated with 50 μg/ml P8
Description: FIG. 6C is a bar graph showing specific binding of the P8 peptide to IgM^CM-22. The ELISA plates were coated with 50 μg/ml solution of P8 peptide, followed by addition of IgM^CM-22 or IgM^CM-75 at 1 or 10 μg/ml. IgM binding was detected with a biotinylated rat anti-mouse IgM followed by streptavidin-phosphatase and color reaction. The results are representative of at least three independent experiments.
as §4

[6] = system: antibody deficient mice (RAG-1); test: Intestinal I/R injury in antibody-deficient (RAG-1) mice reconstituted with hybridoma IgM; assay type: in vivo, mouse; conditions: IgM injected intravenously 30 minutes before initial laparotomy, permeability index (FIG. 4)
Description: IgM or saline was injected intravenously 30 minutes before initial laparotomy. At the end of reperfusion, blood is obtained and permeability index is calculated as the ratio of ^125I counts of dried intestine versus that of blood. Values represent means±standard error; n equals the numbers of mice used in experimental groups. 1=WT plus normal saline; 2=RAG plus normal saline; 3=RAG plus IgM hybridoma CM-22; 4=WT sham control.
This finding was unexpected because they have a normal level of IgM in their blood. These findings led to the hypothesis that a special population of B cells termed B-1 cells are responsible for secreting the pathogenic IgM. […] To identify the specific antibody or antibodies responsible for injury, a panel of hybridoma clones were constructed from an enriched pool of peritoneal B-1 cells harvested from normal mice. The general approach for preparing hybridomas from enriched fraction of peritoneal cells includes harvesting peritoneal cells from mice treated 7 days earlier with IL-10 and subsequently enriched for CD23 negative B cells by negative selection with magnetic beads. Enriched B cells are analyzed by FACS following staining with IgM, Mac-1 and CD23 specific Mab. […]
Twenty-two IgM-secreting hybridoma clones were analyzed by pooling an equal amount of IgM product from each of the clones. […]

RAG-1^−/− mice [7] = conditions: IgM-reconstituted sham controls (no ischemia); Zhang et al. (2004); cited from earlier work
[8] = system: non-muscle myosin heavy chain-II (NMHC-II) isoforms A, B and C; test: ELISA: IgM binding to captured NMHC-II from intestinal lysates; set-up: species or system mouse; conditions: NMHC captured from jejuneum lysates of RAG-1^−/− mice
Description: FIG. 8B is a series of graphs showing results of in vitro binding assays of IgM^CM-22 to the isoforms of non-muscle myosin heavy chain-II (NMHC-II). ELISA plates were coated with monoclonal antibodies for 3 different isoforms of NMHC-II (upper left: isoform A, upper right: isoform B, lower left: isoform C and lower right: anti-pan myosin antibody). Bound myosin heavy chain from intestinal lysates was detected by IgM^CM-22 or IgM^CM-31. The results represent mean±standard error of OD 405 nm units and are representative of triplicate samples.
as §4, with “101:3886-91).” for “101:3886-91). Lysates were prepared as described for immune precipitation (see below). Alkaline-phosphatase labeled goat anti-mouse IgM (Sigma, Mo.) was then used to detect bound IgM.”

[9] = peptide mixed with IgM^CM-22 prior to injection in RAG-1^−/− mice

Kd (IgM^CM-22 [2]): 123 ± 61 µM | SPR binding to IgM^CM-31-coupled surface (IgM^CM-31): no binding was observed
Molecule: LMKNMDPLNDNV [N2]
IgM and complement deposition in reperfused jejuneum (immunohistology) (RAG-1^−/− mice [1]; [9]): no deposition of IgM and complement | mean pathology score (RAG-1^−/− mice [1]; [9]): 13±8 | IgM and complement deposition in reperfused tissues (immunohistology) (WT mice): blocked | mean pathology score (WT mice): 8±5

IC50 (IgM^CM-22 [4]): ~10 µM | relative binding of phage clone to IgM^CM-22 (IgM^CM-22 [5]): bound with the highest efficiency
Molecule: NGNNVNGNRNNN [P8]
optimal concentration sufficient to block 50-100 μg of IgM^CM-22 (0.1-0.2 μM) (IgM^CM-22 [3]): 10 µM | IgM and complement deposition in reperfused jejuneum (immunohistology) (RAG-1^−/− mice [1]; [9]): no evidence of IgM or complement binding | mean pathology score (RAG-1^−/− mice [1]; [9]): 6±3 | IgM and complement deposition in reperfused tissues (immunohistology) (WT mice): no apparent deposits of IgM or complement | mean pathology score (WT mice): 5.+−.3

IgM binding to P8 peptide-coated plate (P8 peptide; IgM at 1 μg/ml): neither IgM bound above background | IgM binding to P8 peptide-coated plate (P8 peptide; IgM at 10 μg/ml): significantly more | binding of IgM to all three isoforms of NMHC-II (ELISA) [8]: Above background binding
B1: IgM^CM-22: natural IgM produced from hybridoma PTA-3507; heavy chain SEQ ID NO: 2, light chain SEQ ID NO: 8 (antibody, listed as Mus musculus)
heavy: QVQLQQSGAELVKPGASVKISCKASGYAFSSYWMNWVKQRPGKGLEWIGQIYPGDGDTNYNGKFKGKATLTADKSSSTAYMQLSSLTSEDSAVYFCAREDYYGSDWYFDVWGTGTTVTVSSGKLAFFFLHIPF
light: IVMTQSAASLAVSLGQRATISYRASKSVSTSGYSYMHWNQQKPGQPPRLLIYLVSNLESGVPARFSGSGSGTDFTLNIHPVEEEDAATYYCQHIRELTRSEGGPSWK
IgM and complement C4 and C3 deposition in reperfused jejuneum (immunohistology) (RAG-1^−/− mice [1]; RAG-1^−/− mice reconstituted with the IgM alone, following RI): co-localization of IgM and complement C4 and C3 within the microvilli | mean pathology score (RAG-1^−/− mice [1]; RAG-1^−/− mice reconstituted with the antibody alone): 31±13 and 31±10 | restoration of I/R injury [6]: restored injury | IgM and complement deposition (immunohistology) (RAG-1^−/− mice [7]): No binding of IgM or complement
